Laboratory results from ChEMBL document CHEMBL1201862, “PubChem BioAssay data set” (2004).
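Following 48 hours of exposure in 96-well plates, responses at five concentrations were used to interpolate endpoints linearly. The concentration for 50% growth inhibition is given as GI50.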 Calls of active or inactive are those of the source. No stated cut-off is given here; in the data, active = GI50 up to about 1.1 µM and inactive = higher.

Key:
Assay in all cases: NCI-60 cell line screen, 48 h
[1] = system: RXF 393
[2] = system: MCF7
[3] = system: SF-295
[4] = system: SK-MEL-5
[5] = system: TK-10
[6] = system: UACC-257
[7] = system: HCT-116
[8] = system: NCI-H522
[9] = system: SK-MEL-28
[10] = system: SW-620
[11] = system: SR
[12] = system: K562
[13] = system: PC-3
[14] = system: SF-539
[15] = system: IGROV-1
[16] = system: NCI-H23
[17] = system: M14
[18] = system: CCRF-CEM
[19] = system: UO-31
[20] = system: Malme-3M

Structure (SMILES)	GI50 [1]	GI50 [2]	GI50 [3]	GI50 [4]	GI50 [5]	GI50 [6]	GI50 [7]	GI50 [8]	GI50 [9]	GI50 [10]	GI50 [11]	GI50 [12]	GI50 [13]	GI50 [14]	GI50 [15]	GI50 [16]	GI50 [17]	GI50 [18]	GI50 [19]	GI50 [20]
COC(=O)/C(C#N)=C(\N)c1c(C)c2ccccc2oc1=N	> 100 µM (inactive)	> 100 µM (inactive)	> 100 µM (inactive)	> 100 µM (inactive)	> 100 µM (inactive)	> 100 µM (inactive)	> 100 µM (inactive)	> 100 µM (inactive)	> 100 µM (inactive)	> 100 µM (inactive)	> 100 µM (inactive)	> 100 µM (inactive)	> 100 µM (inactive)	> 100 µM (inactive)	> 100 µM (inactive)	–	–	–	–	–
CC(Oc1ccccc1Cl)C(=O)NN1C(=O)CSC1c1ccccc1 (stereo not given)	61.2 µM (inactive)	92.3 µM (inactive)	68.7 µM (inactive)	> 100 µM (inactive)	> 100 µM (inactive)	> 100 µM (inactive)	34.9 µM (inactive)	64.6 µM (inactive)	> 100 µM (inactive)	> 100 µM (inactive)	21.9 µM (inactive)	32.7 µM (inactive)	> 100 µM (inactive)	> 100 µM (inactive)	> 100 µM (inactive)	> 100 µM (inactive)	> 100 µM (inactive)	> 100 µM (inactive)	> 100 µM (inactive)	–
Oc1cc(O)c2ccc(-c3ccc(O)c(O)c3)[o+]c2c1	63.8 µM (inactive)	> 100 µM (inactive)	> 10 µM (inactive)	–	> 100 µM (inactive)	> 100 µM (inactive)	> 100 µM (inactive)	> 100 µM (inactive)	> 100 µM (inactive)	> 100 µM (inactive)	–	> 100 µM (inactive)	> 100 µM (inactive)	> 100 µM (inactive)	> 100 µM (inactive)	> 100 µM (inactive)	> 100 µM (inactive)	67.9 µM (inactive)	> 100 µM (inactive)	> 100 µM (inactive)
CC(C)(C)OC(=O)N1CCC(NC(=O)NC2CCN(C(=O)OC(C)(C)C)CC2)CC1	–	> 100 µM (inactive)	> 100 µM (inactive)	–	> 100 µM (inactive)	> 100 µM (inactive)	> 100 µM (inactive)	> 100 µM (inactive)	> 100 µM (inactive)	> 100 µM (inactive)	> 100 µM (inactive)	–	> 100 µM (inactive)	> 100 µM (inactive)	> 100 µM (inactive)	> 100 µM (inactive)	> 100 µM (inactive)	> 100 µM (inactive)	> 100 µM (inactive)	> 100 µM (inactive)
CC(C)(C)OC(=O)NCCC(=O)NC1(c2cc3ccccc3s2)CCCCC1	12.8 µM (inactive)	17.5 µM (inactive)	18.4 µM (inactive)	13.1 µM (inactive)	29 µM (inactive)	19.1 µM (inactive)	13.9 µM (inactive)	12.5 µM (inactive)	19.1 µM (inactive)	22.6 µM (inactive)	–	12.3 µM (inactive)	18.5 µM (inactive)	15 µM (inactive)	17.3 µM (inactive)	15.5 µM (inactive)	18.4 µM (inactive)	12.5 µM (inactive)	16.1 µM (inactive)	21.5 µM (inactive)
C=CCOc1ccc(C2c3c(n[nH]c3O)CC(C)(O)C2C(=O)OC)cc1OC (stereo not given)	–	> 100 µM (inactive)	> 100 µM (inactive)	> 100 µM (inactive)	> 100 µM (inactive)	> 100 µM (inactive)	> 100 µM (inactive)	> 100 µM (inactive)	> 100 µM (inactive)	> 100 µM (inactive)	> 100 µM (inactive)	–	> 100 µM (inactive)	> 100 µM (inactive)	> 100 µM (inactive)	> 100 µM (inactive)	> 100 µM (inactive)	> 100 µM (inactive)	> 100 µM (inactive)	> 100 µM (inactive)
C=C1C[C@@H]2CC[C@@]34CC5O[C@H]6C(O[C@H]7CC[C@H](CC(=O)O[C@@H]8[C@@H](C)[C@@H]9O[C@@H]%10C[C@]%11(C[C@@H]%12O[C@]%13(C[C@H](C)[C@@H]%14O[C@@H]%15CC(C(COC(C)=O)OC(C)=O)O[C@@H]%15C[C@@H]%14O%13)C[C@H](C)[C@@H]%12O%11)O[C@@H]%10C[C@@H]9O[C@H]8CC8O[C@@H](CC[C@@H]1O2)C[C@@H](C)C8(O)CO)O[C@@H]7[C@@H]6O3)[C@H]5O4 (stereo not given in full)	0.0359 µM (active)	0.249 µM (active)	0.297 µM (active)	0.243 µM (active)	> 0.36 µM (active)	0.0716 µM (active)	0.292 µM (active)	0.137 µM (active)	> 1 µM (active)	0.6 µM (active)	0.117 µM (active)	0.513 µM (active)	0.399 µM (active)	–	0.371 µM (active)	0.264 µM (active)	0.587 µM (active)	0.995 µM (active)	> 0.805 µM (active)	–
CN(C)CC1CN=C(N)O1 (stereo not given)	> 100 µM (inactive)	> 100 µM (inactive)	> 100 µM (inactive)	> 100 µM (inactive)	> 100 µM (inactive)	> 100 µM (inactive)	> 100 µM (inactive)	> 100 µM (inactive)	> 100 µM (inactive)	> 100 µM (inactive)	–	> 100 µM (inactive)	> 100 µM (inactive)	> 100 µM (inactive)	–	> 100 µM (inactive)	> 100 µM (inactive)	> 100 µM (inactive)	> 100 µM (inactive)	> 100 µM (inactive)
CC1(C)CCSC(/C=C/c2ccccc2)=N1	21.6 µM (inactive)	12.3 µM (inactive)	19.9 µM (inactive)	15.2 µM (inactive)	18.2 µM (inactive)	13 µM (inactive)	13.6 µM (inactive)	17 µM (inactive)	19.3 µM (inactive)	19.1 µM (inactive)	–	> 100 µM (inactive)	16.6 µM (inactive)	19.8 µM (inactive)	20.6 µM (inactive)	17.8 µM (inactive)	13.2 µM (inactive)	21.5 µM (inactive)	–	11.8 µM (inactive)
COc1cc(C2c3cc4c(cc3[C@@H](Nc3ccc(F)cc3)C3COC[C@H]23)OCO4)cc(OC)c1O (stereo not given in full)	–	1.1 µM (active)	0.877 µM (active)	3.43 µM (inactive)	5.9 µM (inactive)	7.82 µM (inactive)	2.07 µM (inactive)	3.22 µM (inactive)	5 µM (inactive)	3.15 µM (inactive)	0.543 µM (active)	4.19 µM (inactive)	3.26 µM (inactive)	0.75 µM (active)	11.9 µM (inactive)	–	2.22 µM (inactive)	0.622 µM (active)	0.488 µM (active)	–
NCc1ccc(-c2ccc(-c3ccc(-c4ccc(CN)s4)s3)s2)s1	> 100 µM (inactive)	> 100 µM (inactive)	> 100 µM (inactive)	> 100 µM (inactive)	> 100 µM (inactive)	> 100 µM (inactive)	> 100 µM (inactive)	> 100 µM (inactive)	> 100 µM (inactive)	> 100 µM (inactive)	–	> 100 µM (inactive)	> 100 µM (inactive)	> 100 µM (inactive)	> 100 µM (inactive)	> 100 µM (inactive)	> 100 µM (inactive)	> 100 µM (inactive)	> 100 µM (inactive)	> 100 µM (inactive)
C=C(CBr)CCCOCc1ccccc1	–	30.5 µM (inactive)	36.1 µM (inactive)	20.5 µM (inactive)	16.7 µM (inactive)	33.9 µM (inactive)	41.6 µM (inactive)	22.3 µM (inactive)	40.9 µM (inactive)	32.7 µM (inactive)	31.3 µM (inactive)	40.3 µM (inactive)	19.7 µM (inactive)	19.5 µM (inactive)	21.4 µM (inactive)	13.9 µM (inactive)	16.7 µM (inactive)	26.1 µM (inactive)	13.7 µM (inactive)	20.7 µM (inactive)
Cc1n[nH]c(=O)n1N=C(c1ccccc1)c1ccccc1	1.26 µM (inactive)	> 100 µM (inactive)	> 100 µM (inactive)	> 100 µM (inactive)	> 100 µM (inactive)	> 100 µM (inactive)	> 100 µM (inactive)	> 100 µM (inactive)	> 100 µM (inactive)	> 100 µM (inactive)	–	> 100 µM (inactive)	> 100 µM (inactive)	–	> 100 µM (inactive)	> 100 µM (inactive)	> 100 µM (inactive)	> 100 µM (inactive)	> 100 µM (inactive)	24.9 µM (inactive)
CC(C)CCCC(C)[C@H]1CC[C@H]2[C@@H]3CC[C@H]4C[C@@H](CCC=C(c5cc(Cl)c(O)c(C(=O)O)c5)c5cc(Cl)c(O)c(C(=O)O)c5)CC[C@]4(C)[C@H]3CC[C@]12C (stereo not given in full)	> 50 µM (inactive)	> 50 µM (inactive)	> 50 µM (inactive)	28.8 µM (inactive)	> 50 µM (inactive)	–	> 50 µM (inactive)	> 50 µM (inactive)	> 50 µM (inactive)	> 50 µM (inactive)	–	31.1 µM (inactive)	> 50 µM (inactive)	> 50 µM (inactive)	> 50 µM (inactive)	> 50 µM (inactive)	> 50 µM (inactive)	> 50 µM (inactive)	6.03 µM (inactive)	> 50 µM (inactive)
O=C1CC(C(COCc2ccccc2)OCc2ccccc2)CC(=O)N1 (stereo not given)	–	> 100 µM (inactive)	> 100 µM (inactive)	> 100 µM (inactive)	> 100 µM (inactive)	> 100 µM (inactive)	> 100 µM (inactive)	> 100 µM (inactive)	> 100 µM (inactive)	> 100 µM (inactive)	> 100 µM (inactive)	> 100 µM (inactive)	83.2 µM (inactive)	> 100 µM (inactive)	> 100 µM (inactive)	> 100 µM (inactive)	> 100 µM (inactive)	> 100 µM (inactive)	> 100 µM (inactive)	> 100 µM (inactive)
